In data set [1] the test system is GK rats. The data set is described as follows: NFBG and FBG levels in GK rats, 6-week oral treatment. Type of data set: in vivo, rat. The conditions noted are these: during 6-week treatment, TB-2 33.3, BBR 66.7, TB-2+BBR 100, metformin 200 mg/kg/day. As to the method:
(§1) Four-week-old male GK rats were fed a high-fat diet, and age-matched non-diabetic Wistar rats were fed standard chow as the control group. Under these dietary conditions, blood glucose was estimated each week for 7 weeks in 12-h fasted rats using a portable glucometer (One Touch Sure Step Meter, Johnson & Johnson, United States) by drawing the blood from the tail vein. GK rats with fasting blood glucose levels (FBG) above 16.7 mM were considered as diabetic rats, and only uniformly diabetic rats were used in this study. […] All the drugs were suspended in 0.5% carboxymethylcellulose sodium (CMC-Na) solution for oral gavage (10 ml/kg) once per day (at 9:00) for 6 weeks. Simultaneously, the Wistar and vehicle groups received vehicle over the treatment period. Food consumption and body weight were measured every week throughout the experimental periods. Non-fasting blood glucose (NFBG) levels were determined by collecting blood samples from the tail vein (at 9:00), and FBG levels were determined after a 6-h fast (at 15:00) on days 0, 7, 14, 21, and 42. On day 28, an oral glucose tolerance test (OGTT) was performed after an overnight fast. […] On day 42, the rats were anesthetized with urethane (1.4 g/kg, dissolved in saline) after an overnight fast and were sacrificed to collect the liver, kidney, heart, and spleen. The organs were weighed after washing with saline and drying to calculate the organ coefficient, namely, the ratio between the weight of organs and the body in each rat.

For data set [2], the system named is GK rats. The data set can be described thus: Oral glucose tolerance test (OGTT) in GK rats on day 28. It counts as in vivo, rat. The conditions noted are these: after 4 weeks of treatment, glucose 2 g/kg oral. As for the experimental part:
as §1

The nature of data set [3]: Body weight, food intake, organ coefficients and side effects in GK rats. It counts as in vivo, rat. As for the experimental part:
as §1

A short description of data set [4]: PK in systemic plasma of GK rats after repeated oral administration (day 35). Type of data set: in vivo, rat. To be noted: rat, in vivo. As to the method:
Analyses were performed on a Shimadzu LCMS-8030 triple quadrupole system (Shimadzu Corp., Japan) equipped with an electrospray ionization source. Data processing was performed using Shimadzu LC–MS LabSolutions (version 5.42 SP4, Shimadzu, Japan). Chromatographic separation was carried out on a Waters CORTECS C18+ column (100 mm × 2.1 mm, 2.7 μm, Ireland) with a security guard C18+ column (5 mm × 2.1 mm, 2.7 μm, Ireland). […] The gradient elution was 85% B from 0 to 2.5 min, 85% B–83% B from 2.5 to 3.0 min, 83% B from 3.0 to 6.0 min, 83% B–40% B from 6.0 to 6.5 min, 40% B from 6.5 to 7.0 min, 40% B–85% B from 7.0 to 7.2 min, and 85% B from 7.2 to 12 min. […] The optimized precursor-to-product ion pairs (collision energy) were in the positive mode as follows: m/z 579.20–255.15 (28 V) for TB-2 (at 4.1 min) and timosaponin A3 (at 6.1 min) and 271.50–154.70 (25 V) for tolbutamide (IS, at 5.8 min). […] If the concentrations of the compounds were over the linear range, the relevant samples were diluted with blank matrix by a factor of 10. […] Four-week-old male GK rats were fed a high-fat diet, and age-matched non-diabetic Wistar rats were fed standard chow as the control group. Under these dietary conditions, blood glucose was estimated each week for 7 weeks in 12-h fasted rats using a portable glucometer (One Touch Sure Step Meter, Johnson & Johnson, United States) by drawing the blood from the tail vein. GK rats with fasting blood glucose levels (FBG) above 16.7 mM were considered as diabetic rats, and only uniformly diabetic rats were used in this study. […] All the drugs were suspended in 0.5% carboxymethylcellulose sodium (CMC-Na) solution for oral gavage (10 ml/kg) once per day (at 9:00) for 6 weeks. Simultaneously, the Wistar and vehicle groups received vehicle over the treatment period. Food consumption and body weight were measured every week throughout the experimental periods. Non-fasting blood glucose (NFBG) levels were determined by collecting blood samples from the tail vein (at 9:00), and FBG levels were determined after a 6-h fast (at 15:00) on days 0, 7, 14, 21, and 42. On day 28, an oral glucose tolerance test (OGTT) was performed after an overnight fast. […] On day 42, the rats were anesthetized with urethane (1.4 g/kg, dissolved in saline) after an overnight fast and were sacrificed to collect the liver, kidney, heart, and spleen. The organs were weighed after washing with saline and drying to calculate the organ coefficient, namely, the ratio between the weight of organs and the body in each rat. The liver samples were diluted with 3 volumes (0.5 g/1.5 ml) of saline and homogenized. The liver homogenates and plasma samples (100 μl) were precipitated with three volumes of acetonitrile (containing 10 μg/ml tolbutamide). […] Then, 100 μl of the original mobile phase was added, and the samples were vortexed for 5 min and centrifuged at 13,000 rpm at 4°C for 10 min. Finally, the supernatant was used for HPLC–QQQ–MS/MS analysis. A non-compartmental analysis was performed using WinNonlin software (Pharsight 6.2, Raleigh, NC, United States) to calculate the PK parameters. The significance of PK parameters in normal rats, generated by the sparse method in WinNonlin, was assessed with Welch’s unequal variances t-test. The significance of the other results was assessed using two-tailed Student’s t-tests. Statistical significance was defined as P < 0.05.

Data set [5] is described as follows: Transport in Caco-2 cells. The conditions noted are these: human; for efflux ratio at 120 min: Caco-2, Caco-2, no inhibitor, Papp (BL−AP)/Papp (AP−BL); for Papp A→B at 120 min / Papp B→A at 120 min: Caco-2, no inhibitor, digoxin 10 μM, TB-2 5 μM, BBR 10 μM. It counts as in vitro ADME, human. As for the experimental part:
(§2) The culture medium was changed every other day for the first 7 days and then daily for the next 14 days. […] Prior to the transport experiments, the cell monolayers were washed three times with HBSS at 37°C. […] At the same time, the corresponding opposite side was filled with medium as the receiving chamber. After incubation for 30, 60, 90, and 120 min, 250-μl aliquots of the medium was taken from the receiving chamber at each time point, and prepared for analysis by HPLC–MS/MS. […] where (ΔQ/Δt) is the linear slope of the drug concentration in the receptor chamber over time, A represents the surface area of the membrane (1.12 cm^2), and C0 is the initial concentration of drug in the donor chamber. The efflux ratio (ERpermeability) for BL to AP and AP to BL transport was defined by the following equation: […] where Papp (BL–AP) and Papp (AP–BL) are the apparent permeability of drugs from the basolateral (BL) to apical (AP) and AP to BL sides of the monolayer, respectively.
For orientation: Passage across Caco-2 layers is used to estimate intestinal permeability.

The conditions of data set [6]: male, Wistar, rat, in vivo.
The conditions of data set [7]: male, Wistar, rat, in vivo. The source holds these as a separate data set.
The conditions of data set [8]: ref Cai et al., 2008; cited from earlier work.
The nature of data set [9]: in vivo. To be noted: male, Wistar, rat, po.
The nature of data set [10]: in vivo. The conditions noted are these: male, Wistar, rat, po. This is another data set of the same source.
For another data set, the system named is primary rat hepatocytes. The data set is described as follows: Hepatic metabolism in primary hepatocytes. The conditions noted are these: BBR 1 μM, 3 h, ABT 1 mM, TB-2 0.1 to 30 μM.
A further data set has as its system Caco-2 cells. The data set can be described thus: Transport in Caco-2 cells. To be noted: Caco-2, no inhibitor; Papp (BL−AP)/Papp (AP−BL). It counts as in vitro ADME, human. As for the experimental part:
as §2

The mark [11] stands for this setting: read-out: ERpermeability (efflux ratio).
[12] abbreviates: with BBR 10 μM (co-incubated), Caco-2, TB-2 5 μM in presence of BBR (10 μM), n = 3.

Where two headings read alike, the source gives them in different places.

A word on the Tmax: it is the time at which the peak concentration occurs. One may read the half-life as the time needed for the level to fall by half in the phase considered. Lower therefore signals rapid decline. As a reminder, the Papp A→B is how fast a substance crosses the layer from the apical side. As usually defined, the Papp B→A is the apparent permeability from the basolateral to the apical side of a cell layer. For orientation: bioavailability means the share of a dose that reaches the circulation, judged against a reference dose that is usually intravenous.

As to `CC(CCC1(O)OC2CC3C4CCC5CC(OC6OC(CO)C(O)C(O)C6OC6OC(CO)C(O)C(O)C6O)CCC5(C)C4CCC3(C)C2C1C)COC1OC(CO)C(O)C(O)C1O` (stereo not shown) [TB-2, timosaponin B2], the “FBG levels compared with the vehicle group (in words)” value with GK rats [1] is “no significant differences”. Moreover, the “NFBG levels compared with the vehicle group (in words)” value in the data set on GK rats [1] is “no significant differences”. For the same molecule, the “decrease in the AUC of blood glucose in OGTT vs vehicle” value with GK rats [2] is listed as “didn’t significantly decrease”. The “effect on body weight or food consumption vs vehicle” value in data set [3] (6-week oral treatment) was “no effect”. In [3] (day 42), the “effect on organ coefficients (liver and kidney) vs vehicle” value is on record as “limited”. Further, the AUC in data set [4] (male, GK, po, 33.3 mg/kg) was 100.4 ± 26.2 h ∗ ng/ml; in data set [4] (male, GK, po, 33.3 mg/kg, AUC), 77.5 ± 13.6 ng·h/mL. The molecule further came in with a T1/2 in data set [4] (male, GK, po, 33.3 mg/kg) of 8.6 ± 1.8 h. In addition, the Tmax stood at 1.1 ± 0.3 h in data set [4] (male, GK, po, 33.3 mg/kg); 2.1 ± 0.6 h in [4] (male, GK, po, 33.3 mg/kg, Tmax); 1 h in the data set “in vivo [9]” (33.3 mg/kg); 2 h in the data set “in vivo [9]” (100 mg/kg); 0.2 h in the data set “in vivo [10]” (33.3 mg/kg); 2 h in the data set “in vivo [10]” (100 mg/kg). Further, the half-life is 14.3 ± 5.3 h in [4] (male, GK, po, 33.3 mg/kg, T1/2); 22.8 h in the data set “in vivo [9]” (100 mg/kg); 23.2 h in the data set “in vivo [10]” (100 mg/kg). Further, the “increase in AUC on combination vs single treatment” value in data set [4] was “no significant improvement”. The “increase in Cmax on combination vs single treatment” value in data set [4] was “no significant improvement”. Moreover, the efflux ratio at 120 min in [5] (setting [11]) amounted to 1.1. Further, the efflux ratio at 120 min, 5 μM in data set [5] (Caco-2, with BBR 10 μM (co-incubated), Caco-2, TB-2 5 μM in presence of BBR (10 μM), read-out: ERpermeability (efflux ratio)) was 1. In data set [5] (setting [12]), the Papp A→B at 120 min, 5 μM was 0.081 ± 0.035 ×10⁻⁶ cm/s. Further, in [5] (setting [12]), the basolateral-to-apical permeability (Papp B→A) at 120 min, 5 μM was determined as 0.085 ± 0.035 ×10⁻⁶ cm/s. In addition, in [5] (n = 3), the apparent permeability from apical to basolateral (Papp A→B) at 120 min worked out at 0.057 ± 0.032 ×10⁻⁶ cm/s. The Papp B→A at 120 min in data set [5] (n = 3) stood at 0.061 ± 0.043 ×10⁻⁶ cm/s. In addition, the “ERliver (liver extraction ratio)” value was 77.8% in data set [6] and 80.6% in data set [6] (po, 33.3 mg/kg). Moreover, the “improvement of levels on co-administration” value in data set [7] is recorded as 141–230%. In addition, the bioavailability in [8] is on record as 1.2%. Besides, the “effect on BBR metabolism and the generation of M2–M5” value in the data set on primary rat hepatocytes was “did not significantly affect”.
With `C[C@H]1O[C@@H](O[C@H]2[C@@H](O)C[C@H](O[C@H]3[C@@H](O)C[C@H](O[C@H]4CC[C@@]5(C)[C@H](CC[C@@H]6[C@@H]5C[C@@H](O)[C@]5(C)[C@@H](C7=CC(=O)OC7)CC[C@]65O)C4)O[C@@H]3C)O[C@@H]2C)C[C@H](O)[C@@H]1O` [Digoxin, digoxin], the efflux ratio at 120 min in data set [5] (setting [11]) was around 130. In [5] (n = 3), this molecule registered a Papp A→B at 120 min of 0.191 ± 0.02 ×10⁻⁶ cm/s and an apparent permeability from basolateral to apical (Papp B→A) at 120 min of 26.5 ± 1.91 ×10⁻⁶ cm/s. For the same molecule, the “ERpermeability (efflux ratio)” value in the data set on Caco-2 cells turned out to be 138.8.

Source of the values: article PMC6353801, “Enhanced Anti-diabetic Effect of Berberine Combined With Timosaponin B2 in Goto-Kakizaki Rats, Associated With Increased Variety and Exposure of Effective Substances Through Intestinal Absorption” (Frontiers in Pharmacology, 2019).
